Data set [1] has as its system neuropathic pain model induced by L5/L6 spinal nerve ligation (tactile allodynia). Conditions: rat, in vivo, po.
Protocol: Antineuropathic effect of a combination of pregabalin and alpha lipoic acid through the neuropathic pain model induced by L5/L6 spinal nerve ligation in rat was determined.
Wistar female rats with a body weight of 120-140 g were used for all experiments. Animals were kept under temperature controlled conditions (22° C.) and water and food were given ad-libitum in experimentation rooms.
Both pregabalin and alpha lipoic acid were suspended in a 0.5% carboxymethylcellulose isotonic saline solution. Individual drugs or in combination were prepared and administered just before starting the experiment.
Rats were prepared according to the method described by Kim S H, Chung J M. 1992. […]
Tactile allodynia was determined according to the previously described method by Chaplan S R, Bach F W, Pogrel J W, Chung J M, Yaksh T L. 1994. […] Paw withdrawal mechanical threshold was measured immediately after and a systemic administration of drugs was carried out. Later, paw withdrawal mechanical threshold was measured at 0.5, 1, 2, 3, 4, 5, 6, 7 and 8 hours. […]
Graphs of 50% withdrawal threshold in grams (g) in function of time (minutes) were prepared from data obtained. Area under curve was determined from these graphs through trapezoidal method and % of maximum possible effect (% MEP) was calculated using the following formula: % MEP=(Drug AUC−Neuropathic AUC)/(Sham AUC−Neuropathic AUC)×100 […]
Data set [2] in a line: Safety/tolerability observations in treated rats. The settings on record: 30 mg/Kg dose.
Protocol: Wistar female rats with a body weight of 120-140 g were used for all experiments. Animals were kept under temperature controlled conditions (22° C.) and water and food were given ad-libitum in experimentation rooms. Experiments were carried out according to the guidelines on ethical issues on experimental pain research in animals (Zimmermann M. 1983. Ethical guidelines for investigations of experimental pain in conscious animals. Pain. 16:109-110).

Usually ED50 stands for the dose that gives a 50% effect, or the effect in half of the subjects.

Turning to `O=C(O)CCCCC1CCSS1` (stereo not drawn) [alpha lipoic acid], the ED50 in data set [1] was found to be 57.5 ± 5.59 mg/kg.

As for `CC(C)C[C@H](CN)CC(=O)O` [pregabalin], in data set [2], the adverse signs observed result was “sedation and motor discoordination”. The compound also returned an ED50 in data set [1] of 2.45 ± 0.23 mg/kg.

These data come from patent US12029727B2, “Combinations and methods for the treatment of neuropathic pain” (priority 2016, dated 2024).
